Measurements published in patent US20020137929A1, “1 - (3-heterocyclylphenyl) isothiourea, -isourea, -guanidine and -amidine herbicidal agents” (Intellectual Property Department, BASF Aktiengesellschaft, priority 1998, published 2002).

Legend:
ABUTH (Velvetleaf) [1] = test: Postemergence herbicidal evaluation; assay type: in vivo, Abutilon theophrasti
In short: (§1)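 Seedlings grown about two weeks were sprayed at 40 psi with compound dispersed in 50/50 acetone/water plus 0.5% TWEEN 20, at about 0.0156 to 0.500 kg/ha. Plants were kept in the greenhouse and scored 4–5 weeks later on a 0–9 visual scale against untreated controls.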

[2] = system: CHEAL (Lambsquarters, Common); test: Postemergence herbicidal evaluation; assay type: in vivo, Chenopodium album
In short: as §1

[3] = system: IPOHE (Morningglory, Ivyleaf); test: Postemergence herbicidal evaluation; assay type: in vivo, Ipomoea hederacea
In short: as §1

ECHCG (Barnyardgrass) [4] = test: Postemergence herbicidal evaluation; assay type: in vivo, Echinochloa crus-galli
In short: as §1

SETVI (Foxtail, Green) = test: Postemergence herbicidal evaluation; assay type: in vivo, Setaria viridis
In short: as §1

ORYSAT (Rice, Tebonnet) = test: Postemergence herbicidal evaluation; assay type: in vivo, Oryza sativa, (L.) Tebonnet
In short: as §1

ZEAMX (Corn, Field) [5] = test: Postemergence herbicidal evaluation; assay type: in vivo, Zea mays
In short: as §1

ABUTH (Velvetleaf) [6] = test: Preemergence herbicidal evaluation; assay type: in vivo, Abutilon theophrasti; conditions: rated 4-5 weeks after treatment
In short: (§2)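 Scores use a 0–9 visual scale covering stand, vigor, malformation, size and chlorosis relative to controls, rated four to five weeks after treatment. Before emergence, soil-planted seeds were sprayed with compound in aqueous acetone at roughly 0.0156–0.500 kg/ha and held in the greenhouse.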

CASOB (Sicklepod) = test: Preemergence herbicidal evaluation; assay type: in vivo, Cassia obtusifolia; conditions: rated 4-5 weeks after treatment
In short: as §2

[7] = system: CHEAL (Lambsquarters, Common); test: Preemergence herbicidal evaluation; assay type: in vivo, Chenopodium album; conditions: rated 4-5 weeks after treatment
In short: as §2

[8] = system: IPOHE (Morningglory, Ivyleaf); test: Preemergence herbicidal evaluation; assay type: in vivo, Ipomoea hederacea; conditions: rated 4-5 weeks after treatment
In short: as §2

ECHCG (Barnyardgrass) [9] = test: Preemergence herbicidal evaluation; assay type: in vivo, Echinochloa crus-galli; conditions: rated 4-5 weeks after treatment
In short: as §2

[10] = system: GLXMAW (Soybean, Williams); test: Preemergence herbicidal evaluation; assay type: in vivo, Glycine max, (L.) Merr. cv Williams; conditions: rated 4-5 weeks after treatment
In short: as §2

[11] = system: TRZAWR (Wheat, Winter, cv Riband); test: Preemergence herbicidal evaluation; assay type: in vivo, Triticum aestivum; conditions: rated 4-5 weeks after treatment
In short: as §2

ZEAMX (Corn, Field) [12] = test: Preemergence herbicidal evaluation; assay type: in vivo, Zea mays; conditions: rated 4-5 weeks after treatment
In short: as §2

CYPIR (Rice Flatsedge) = test: Postemergence weed control under flooded paddy conditions; assay type: in vivo, Cyperus iria; conditions: postemergence weeds, 3-4 weeks after treatment
In short: (§3)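 Injury ratings (0–9 scale covering stand, vigor, malformation, size, chlorosis and overall appearance versus control) were made three to four weeks after treatment. Test material, about 0.0313 to 0.500 kg/ha a.i. in 50/50 v/v aqueous/acetone, was added to flood water 1.5 to 3 cm deep over 3 to 5 cm weeds and 1.5 to 2.5 leaf rice.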

CYPSE (Flatsedge) = test: as above; assay type: in vivo, Cyperus serotinus; conditions: postemergence weeds, 3-4 weeks after treatment
In short: as §3

SMILES: Cn1c(C(F)(F)F)cc(=O)n(-c2cc(N=C3SCC(=O)N3CC(=O)NS(C)(=O)=O)c(Cl)cc2F)c1=O [Compound 38, 2-{{2-Chloro-5-[3,6-dihydro-3-methyl-2,6-dioxo-4-(trifluoromethyl)-1(2H)-pyrimidinyl]-4-fluoro-phenyl}imino}-N-(methylsulfonyl)-4-oxo-3-thiazolidineacetamide]
- Postemergence herbicidal rating ABUTH (ABUTH (Velvetleaf) [1]; Rate 0.0156 kg/ha): 9.0
- Postemergence herbicidal rating ABUTH (ABUTH (Velvetleaf) [1]; Rate 0.0313 kg/ha): 9.0
- Postemergence herbicidal rating ABUTH (ABUTH (Velvetleaf) [1]; Rate 0.0625 kg/ha): 9.0
- Postemergence herbicidal rating ABUTH (ABUTH (Velvetleaf) [1]; Rate 0.1250 kg/ha): 9.0
- Postemergence herbicidal rating ABUTH (ABUTH (Velvetleaf) [1]; Rate 0.2500 kg/ha): 9.0
- Postemergence herbicidal rating CHEAL ([2]; Rate 0.0156 kg/ha): 1.0
- Postemergence herbicidal rating CHEAL ([2]; Rate 0.0313 kg/ha): 3.0
- Postemergence herbicidal rating CHEAL ([2]; Rate 0.0625 kg/ha): 4.0
- Postemergence herbicidal rating CHEAL ([2]; Rate 0.1250 kg/ha): 6.0
- Postemergence herbicidal rating CHEAL ([2]; Rate 0.2500 kg/ha): 9.0
- Postemergence herbicidal rating IPOHE ([3]; Rate 0.0156 kg/ha): 9.0
- Postemergence herbicidal rating IPOHE ([3]; Rate 0.0313 kg/ha): 9.0
- Postemergence herbicidal rating IPOHE ([3]; Rate 0.0625 kg/ha): 9.0
- Postemergence herbicidal rating IPOHE ([3]; Rate 0.1250 kg/ha): 9.0
- Postemergence herbicidal rating IPOHE ([3]; Rate 0.2500 kg/ha): 9.0
- Postemergence herbicidal rating ECHCG (ECHCG (Barnyardgrass) [4]; Rate 0.0156 kg/ha): 0.0
- Postemergence herbicidal rating ECHCG (ECHCG (Barnyardgrass) [4]; Rate 0.0313 kg/ha): 2.0
- Postemergence herbicidal rating ECHCG (ECHCG (Barnyardgrass) [4]; Rate 0.0625 kg/ha): 2.0
- Postemergence herbicidal rating ECHCG (ECHCG (Barnyardgrass) [4]; Rate 0.1250 kg/ha): 5.0
- Postemergence herbicidal rating ECHCG (ECHCG (Barnyardgrass) [4]; Rate 0.2500 kg/ha): 9.0
- Postemergence herbicidal rating SETVI (SETVI (Foxtail, Green); Rate 0.0156 kg/ha): 0.0
- Postemergence herbicidal rating SETVI (SETVI (Foxtail, Green); Rate 0.0313 kg/ha): 3.0
- Postemergence herbicidal rating SETVI (SETVI (Foxtail, Green); Rate 0.0625 kg/ha): 5.0
- Postemergence herbicidal rating SETVI (SETVI (Foxtail, Green); Rate 0.1250 kg/ha): 9.0
- Postemergence herbicidal rating SETVI (SETVI (Foxtail, Green); Rate 0.2500 kg/ha): 9.0
- Postemergence herbicidal rating ORYSAT (ORYSAT (Rice, Tebonnet); Rate 0.0156 kg/ha): 0.5
- Postemergence herbicidal rating ORYSAT (ORYSAT (Rice, Tebonnet); Rate 0.0313 kg/ha): 0.5
- Postemergence herbicidal rating ORYSAT (ORYSAT (Rice, Tebonnet); Rate 0.0625 kg/ha): 2.5
- Postemergence herbicidal rating ORYSAT (ORYSAT (Rice, Tebonnet); Rate 0.1250 kg/ha): 6.0
- Postemergence herbicidal rating ORYSAT (ORYSAT (Rice, Tebonnet); Rate 0.2500 kg/ha): 7.5
- Postemergence herbicidal rating ZEAMX (ZEAMX (Corn, Field) [5]; Rate 0.0156 kg/ha): 7.5
- Postemergence herbicidal rating ZEAMX (ZEAMX (Corn, Field) [5]; Rate 0.0313 kg/ha): 7.5
- Postemergence herbicidal rating ZEAMX (ZEAMX (Corn, Field) [5]; Rate 0.0625 kg/ha): 7.5
- Postemergence herbicidal rating ZEAMX (ZEAMX (Corn, Field) [5]; Rate 0.1250 kg/ha): 7.5
- Postemergence herbicidal rating ZEAMX (ZEAMX (Corn, Field) [5]; Rate 0.2500 kg/ha): 7.5
- Preemergence herbicidal rating ABUTH (ABUTH (Velvetleaf) [6]; rate 0.0313 kg/ha): 9.0
- Preemergence herbicidal rating ABUTH (ABUTH (Velvetleaf) [6]; rate 0.0625 kg/ha): 9.0
- Preemergence herbicidal rating ABUTH (ABUTH (Velvetleaf) [6]; rate 0.1250 kg/ha): 9.0
- Preemergence herbicidal rating ABUTH (ABUTH (Velvetleaf) [6]; rate 0.2500 kg/ha): 9.0
- Preemergence herbicidal rating CASOB (CASOB (Sicklepod); rate 0.0313 kg/ha): 0.0
- Preemergence herbicidal rating CASOB (CASOB (Sicklepod); rate 0.0625 kg/ha): 0.0
- Preemergence herbicidal rating CASOB (CASOB (Sicklepod); rate 0.1250 kg/ha): 0.0
- Preemergence herbicidal rating CASOB (CASOB (Sicklepod); rate 0.2500 kg/ha): 3.0
- Preemergence herbicidal rating CHEAL ([7]; rate 0.0313 kg/ha): 9.0
- Preemergence herbicidal rating CHEAL ([7]; rate 0.0625 kg/ha): 9.0
- Preemergence herbicidal rating CHEAL ([7]; rate 0.1250 kg/ha): 9.0
- Preemergence herbicidal rating CHEAL ([7]; rate 0.2500 kg/ha): 9.0
- Preemergence herbicidal rating IPOHE ([8]; rate 0.0313 kg/ha): 0.0
- Preemergence herbicidal rating IPOHE ([8]; rate 0.0625 kg/ha): 4.0
- Preemergence herbicidal rating IPOHE ([8]; rate 0.1250 kg/ha): 5.0
- Preemergence herbicidal rating IPOHE ([8]; rate 0.2500 kg/ha): 9.0
- Preemergence herbicidal rating ECHCG (ECHCG (Barnyardgrass) [9]; rate 0.0313 kg/ha): 0.0
- Preemergence herbicidal rating ECHCG (ECHCG (Barnyardgrass) [9]; rate 0.0625 kg/ha): 0.0
- Preemergence herbicidal rating ECHCG (ECHCG (Barnyardgrass) [9]; rate 0.1250 kg/ha): 0.0
- Preemergence herbicidal rating ECHCG (ECHCG (Barnyardgrass) [9]; rate 0.2500 kg/ha): 1.0
- Preemergence herbicidal rating GLXMAW ([10]; rate 0.0313 kg/ha): 0.0
- Preemergence herbicidal rating GLXMAW ([10]; rate 0.0625 kg/ha): 2.0
- Preemergence herbicidal rating GLXMAW ([10]; rate 0.1250 kg/ha): 2.0
- Preemergence herbicidal rating GLXMAW ([10]; rate 0.2500 kg/ha): 6.0
- Preemergence herbicidal rating TRZAWR ([11]; rate 0.0313 kg/ha): 0.0
- Preemergence herbicidal rating TRZAWR ([11]; rate 0.0625 kg/ha): 0.0
- Preemergence herbicidal rating TRZAWR ([11]; rate 0.1250 kg/ha): 2.0
- Preemergence herbicidal rating TRZAWR ([11]; rate 0.2500 kg/ha): 7.0
- Preemergence herbicidal rating ZEAMX (ZEAMX (Corn, Field) [12]; rate 0.0313 kg/ha): 0.0
- Preemergence herbicidal rating ZEAMX (ZEAMX (Corn, Field) [12]; rate 0.0625 kg/ha): 0.0
- Preemergence herbicidal rating ZEAMX (ZEAMX (Corn, Field) [12]; rate 0.1250 kg/ha): 0.0
- Preemergence herbicidal rating ZEAMX (ZEAMX (Corn, Field) [12]; rate 0.2500 kg/ha): 4.0
- Herbicidal rating CYPIR (CYPIR (Rice Flatsedge); rate 0.0313 kg/ha): 3.0
- Herbicidal rating CYPIR (CYPIR (Rice Flatsedge); rate 0.0625 kg/ha): 3.0
- Herbicidal rating CYPIR (CYPIR (Rice Flatsedge); rate 0.1250 kg/ha): 5.0
- Herbicidal rating CYPIR (CYPIR (Rice Flatsedge); rate 0.2500 kg/ha): 5.0
- Herbicidal rating CYPSE (CYPSE (Flatsedge); rate 0.0313 kg/ha): 0.0
- Herbicidal rating CYPSE (CYPSE (Flatsedge); rate 0.0625 kg/ha): 0.0
- Herbicidal rating CYPSE (CYPSE (Flatsedge); rate 0.1250 kg/ha): 0.0
- Herbicidal rating CYPSE (CYPSE (Flatsedge); rate 0.2500 kg/ha): 3.0
